Here are results for three molecules from patent US7288273B1, “Gallotannins and ellagitannins as regulators of cytokine release” (The Penn State Research Foundation, priority 2000, dated 2007).

This experiment relates to TNF-α secretion from h-PBMC's. Nature of the experiment: TNF-α release from h-PBMC's, ELISA. Format: cell-based, human. The following applies: 24 hours, ± SD. How it is done:
Authentic samples of agrimoniin and coriariin A were supplied by Professor Yoshida (Okayama University, Japan). Dimeric gallotannin (analog of coriariin A) and β-D-PGG were synthesized as described. LPS (E. coli 055:B5 phenol extract, MW range 50-100 KD). Ficoll-Histopaque (ρ=1.077 g/mL), Fetal Bovine Serum, sterile, hybridoma tested (FCS), gentamicin 10 mg/mL. L-glutamine, 200 mM. Dextran B-512 Leuconostoc Av M.W. 580000, and Trypan Blue stain were purchased from Sigma. Hanks Buffer Saline Solution 1×, with phenol red, mediatech (HBSS) and RPMI 1640 1×, mediatech were purchased from Fisher Scientific, Human IL-1β and TNF-α Enzyme Linked ImmunoSorbent Assay (ELISA) kits were purchased from R and D Systems, Minneapolis, Minn. Fresh heparinized blood was obtained from health human subjects (ages 20-34).
Dose-Response Data: General Procedure. H-PBMC's were isolated by reported procedures (10. 18). The cells counted and the viability was determined by Trypan Blue exclusion (typically, viability exceeded 95%). The concentration of the cells in the 0.5 mL wells was adjusted to 1×10^6 cells/well by diluting with the required amount of RPMI.
The appropriate amount of a tannin (or LPS) stock solution in HBSS was added to each well to furnish the concentration values reported in the Figures. […] The culture plates were incubated in a 5% CO2, 37° C. humidified incubator for the indicated time. At the end of the time interval, 450 μL of the culture supernatant from each well was harvested, after centrifugation at 400 g, 25° C., 10 min. with brake, and stored at −78° C. pending ELISA analysis for the cytokine(s). The ELISA assays were conducted per the manufacturer's instructions using standard calibration curves to calculate cytokine concentration from observed absorbance readings. The cytokine values reported are averages of three runs±SE.
The dimeric antitumor ellagitannins coriariin A and agrimoniin, the monomeric gallotannin β-D-pentagalloylglucose (β-D-PGG) and the dimeric gallotannin of this invention were all examined in this study. The dimeric gallotannin is an analog of coriariin A and is identical to the parent ellagitannin except that the galloyl rings at O(4) and O(6) are not joined in a hexahydroxydiphenoyl (HHDP) linkage. h-PBMC's were incubated with the compound under investigation for the indicated length of time and the amounts of both IL-1β and, independently, TNF-α, present in the culture supernatants was determined using commercially available ELISA kits. In each case, LPS was used as a positive control while untreated cells were reserved as negative controls.
In the first study, the induction of TNF-α secretion from h-PBMC's in the presence of each compound 17c-21c was measured. The h-PBMC's were incubated with each compound for 24 hours. The TNF-α levels in the cell culture supernatant were assayed by Enzyme Linked ImmunoSorbant Assay (ELISA). The data point for each assay represent the mean of triplicate measurements. […] (See FIG. 11).
On the technique in general: ELISA stands for enzyme-linked immunosorbent assay.

`O=C(CCCCCC(=O)OC1O[C@H](COC(=O)c2cc(O)c(O)c(O)c2)[C@@H](OC(=O)c2cc(O)c(O)c(O)c2)[C@H](OC(=O)c2cc(O)c(O)c(O)c2)[C@H]1OC(=O)c1cc(O)c(O)c(O)c1)OC1O[C@H](COC(=O)c2cc(O)c(O)c(O)c2)[C@@H](OC(=O)c2cc(O)c(O)c(O)c2)[C@H](OC(=O)c2cc(O)c(O)c(O)c2)[C@H]1OC(=O)c1cc(O)c(O)c(O)c1` (mixture of isomers) [Compound 20c, 1,1′-O-2,2′,3,3′,4,4′,6,6′-Tetrakis(3,4,5-trihyroxybenzoyl)-β,β′-D,D′-glucopyranosylpimelate]: the “TNF-α secreted in the presence of 17c-21c” value (shortened to “TNF-α secreted”) amounted to 0 pg/mL (compound 0.6 μM); 0 pg/mL (compound 2.8 μM); 0 pg/mL (compound 5.6 μM); 0 pg/mL (compound 11.2 μM); 0 pg/mL (compound 16.8 μM); 0 pg/mL (compound 22.3 μM). The “TNF-α secreted” value (compound 27.9 μM) came to 0 pg/mL.

For `O=C(OC[C@H]1O[C@@H](OC(=O)c2cccc(C(=O)O[C@@H]3O[C@H](COC(=O)c4cc(O)c(O)c(O)c4)[C@@H](OC(=O)c4cc(O)c(O)c(O)c4)[C@H](OC(=O)c4cc(O)c(O)c(O)c4)[C@H]3OC(=O)c3cc(O)c(O)c(O)c3)c2)[C@H](OC(=O)c2cc(O)c(O)c(O)c2)[C@@H](OC(=O)c2cc(O)c(O)c(O)c2)[C@@H]1OC(=O)c1cc(O)c(O)c(O)c1)c1cc(O)c(O)c(O)c1` [Compound 18c, 1,1′-O-2,2′,3,3′,4,4′,6,6′-Tetrakis(3,4,5-trihydroxybenzoyl)-β,β′-D-glucopyranosylisophthalate], the “TNF-α secreted” value is 8.9 ± 5.6 pg/mL (compound 0.6 μM); 11.9 ± 5.2 pg/mL (compound 2.9 μM); 6.7 ± 2.9 pg/mL (compound 5.9 μM); 9.5 ± 7.2 pg/mL (compound 11.8 μM); 11.4 ± 9.2 pg/mL (compound 17.6 μM); 3.3 ± 2.6 pg/mL (compound 23.5 μM). For the same molecule, under “compound 29.4 μM”, the “TNF-α secreted” value is on record as 8.5 ± 3.5 pg/mL.

For `O=C(OC[C@H]1O[C@@H](OC(=O)c2ccc(-c3ccc(C(=O)O[C@@H]4O[C@H](COC(=O)c5cc(O)c(O)c(O)c5)[C@@H](OC(=O)c5cc(O)c(O)c(O)c5)[C@H](OC(=O)c5cc(O)c(O)c(O)c5)[C@H]4OC(=O)c4cc(O)c(O)c(O)c4)cc3)cc2)[C@H](OC(=O)c2cc(O)c(O)c(O)c2)[C@@H](OC(=O)c2cc(O)c(O)c(O)c2)[C@@H]1OC(=O)c1cc(O)c(O)c(O)c1)c1cc(O)c(O)c(O)c1` [Compound 19c, 1,1′-O-2.2′,3,3′,4,4′,6,6′-Tetrakis(3,4,5-trihyroxybenzoyl)-β,β′-D,D′-glucopyranosylbiphenyl-4.4′-diester], the “TNF-α secreted” value was found to be 73.4 ± 58.3 pg/mL (compound 0.6 μM); 50.9 ± 28.0 pg/mL (compound 2.9 μM); 8.0 ± 8.0 pg/mL (compound 5.9 μM); 9.5 ± 6.5 pg/mL (compound 11.8 μM); 24.5 ± 10.7 pg/mL (compound 17.6 μM); 67.6 ± 21.0 pg/mL (compound 23.5 μM). For the same molecule, where the note is “compound 29.4 μM”, the “TNF-α secreted” value is 117.8 ± 44.0 pg/mL.
